Laboratory results from ChEMBL document CHEMBL1201862, “PubChem BioAssay data set” (2004).
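Each compound was tested at five concentrations against cells in 96-well plates for 48 hours. GI50: concentration for 50% inhibition of growth.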 The source made the active and inactive calls. Rule as the data show it: active = GI50 up to about 1.1 µM and inactive = higher.

Columns and labels:
Assay in all cases: DTP human tumour cell line panel, 48 h
MDA-MB-231 = test system: MDA-MB-231
RPMI-8226 = test system: RPMI-8226
K562 = test system: K562
SNB-19 = test system: SNB-19
TK-10 = test system: TK-10
MDA-MB-435 = test system: MDA-MB-435
MOLT-4 = test system: MOLT-4
OVCAR-8 = test system: OVCAR-8
UACC-257 = test system: UACC-257
ACHN = test system: ACHN
EKVX = test system: EKVX
OVCAR-4 = test system: OVCAR-4
HOP-62 = test system: HOP-62
Hs-578T = test system: Hs-578T
HCT-116 = test system: HCT-116
A549 = test system: A549
NCI/ADR-RES = test system: NCI/ADR-RES
SR = test system: SR
UACC-62 = test system: UACC-62
MDA-N = test system: MDA-N

Row | SMILES | GI50 (MDA-MB-231) | GI50 (RPMI-8226) | GI50 (K562) | GI50 (SNB-19) | GI50 (TK-10) | GI50 (MDA-MB-435) | GI50 (MOLT-4) | GI50 (OVCAR-8) | GI50 (UACC-257) | GI50 (ACHN) | GI50 (EKVX) | GI50 (OVCAR-4) | GI50 (HOP-62) | GI50 (Hs-578T) | GI50 (HCT-116) | GI50 (A549) | GI50 (NCI/ADR-RES) | GI50 (SR) | GI50 (UACC-62) | GI50 (MDA-N)
1 | Fc1cc(-c2cc(-c3ccc4c(c3)OCO4)n[nH]2)c(Cl)cc1Cl | 1.75 µM (inactive) | 4.54 µM (inactive) | 4.45 µM (inactive) | 3.5 µM (inactive) | 3 µM (inactive) | 4.88 µM (inactive) | > 32.2 µM (inactive) | 1.85 µM (inactive) | 9.82 µM (inactive) | 1.95 µM (inactive) | 1.75 µM (inactive) | 1.91 µM (inactive) | 2.29 µM (inactive) | 3.99 µM (inactive) | 2 µM (inactive) | 2.72 µM (inactive) | 3.33 µM (inactive) | 7.29 µM (inactive) | 1.46 µM (inactive) | 
2 | COc1cc(/C=c2/c3ccccc3n3c2cc(-c2ccccc2)[n+]3C)cc(OC)c1OC | 4.06 µM (inactive) | 2.55 µM (inactive) | 2.74 µM (inactive) | 5.48 µM (inactive) | 5.33 µM (inactive) | 2.51 µM (inactive) | 2.97 µM (inactive) | 3.33 µM (inactive) | 2.44 µM (inactive) | 4.07 µM (inactive) | 5.15 µM (inactive) | 3.46 µM (inactive) | 5.47 µM (inactive) |  | 2.62 µM (inactive) | 4.18 µM (inactive) | > 100 µM (inactive) |  | 3.69 µM (inactive) | 4.04 µM (inactive)
3 | C[N+]1(C)CCC(C#N)(c2ccccc2)CC1 |  | > 100 µM (inactive) | > 100 µM (inactive) | > 100 µM (inactive) | > 100 µM (inactive) |  | > 100 µM (inactive) | > 100 µM (inactive) | > 100 µM (inactive) | > 100 µM (inactive) | > 100 µM (inactive) | > 100 µM (inactive) | > 100 µM (inactive) | > 100 µM (inactive) | > 100 µM (inactive) | > 100 µM (inactive) | > 100 µM (inactive) | > 100 µM (inactive) |  | > 100 µM (inactive)
4 | CN1CCN(c2n[nH]c(=O)c3c2nnn3Cc2ccccc2)CC1 | > 100 µM (inactive) | > 100 µM (inactive) | > 100 µM (inactive) | > 100 µM (inactive) | > 100 µM (inactive) | > 100 µM (inactive) | > 100 µM (inactive) | > 100 µM (inactive) | > 100 µM (inactive) | > 100 µM (inactive) | > 100 µM (inactive) | > 100 µM (inactive) | > 100 µM (inactive) |  | > 100 µM (inactive) | > 100 µM (inactive) | > 100 µM (inactive) | > 100 µM (inactive) |  | 0.482 µM (active)
5 | COC(=O)C(NC(=O)c1ccccc1)c1ccco1 (stereo unspecified) |  | > 100 µM (inactive) | > 100 µM (inactive) | > 100 µM (inactive) | > 100 µM (inactive) | > 100 µM (inactive) | > 100 µM (inactive) | > 100 µM (inactive) | > 100 µM (inactive) | > 100 µM (inactive) | > 100 µM (inactive) |  | > 100 µM (inactive) | > 100 µM (inactive) | > 100 µM (inactive) | > 100 µM (inactive) | > 100 µM (inactive) | > 100 µM (inactive) | > 100 µM (inactive) | > 100 µM (inactive)
6 | CC(C)(C)OC(=O)N(CCCCNC(=O)c1ccccc1)CCCNC(=O)c1ccccc1 | > 100 µM (inactive) | > 100 µM (inactive) | > 100 µM (inactive) | > 100 µM (inactive) | > 100 µM (inactive) | > 100 µM (inactive) | 46.8 µM (inactive) | > 100 µM (inactive) | > 100 µM (inactive) | > 100 µM (inactive) | > 100 µM (inactive) | > 100 µM (inactive) | > 100 µM (inactive) | > 100 µM (inactive) | > 100 µM (inactive) | > 100 µM (inactive) | 68.1 µM (inactive) | 49.3 µM (inactive) | > 100 µM (inactive) | 
7 | O=CC12CCCN1CCC2 | > 100 µM (inactive) |  | > 100 µM (inactive) | > 100 µM (inactive) | > 100 µM (inactive) | > 100 µM (inactive) | > 100 µM (inactive) |  | > 100 µM (inactive) | > 100 µM (inactive) | > 100 µM (inactive) | > 100 µM (inactive) | > 100 µM (inactive) |  | > 100 µM (inactive) | > 100 µM (inactive) | > 100 µM (inactive) | > 100 µM (inactive) | > 100 µM (inactive) | > 100 µM (inactive)
8 | Clc1ccc(C2=NCON=C2c2ccc(Cl)cc2)cc1 | 18.1 µM (inactive) | 16.8 µM (inactive) | 23.9 µM (inactive) | 28 µM (inactive) | 23.9 µM (inactive) |  | 15.9 µM (inactive) | 25.6 µM (inactive) | 25.1 µM (inactive) | 19 µM (inactive) | 15.1 µM (inactive) | 27.4 µM (inactive) | 25.6 µM (inactive) | 13.8 µM (inactive) | 13.6 µM (inactive) | 31.3 µM (inactive) | 21.5 µM (inactive) |  | 18.9 µM (inactive) | 18.8 µM (inactive)
9 | O=C(/C=C/c1ccc(Cl)c(Cl)c1)CCN1CCN(CCC(=O)/C=C/c2ccc(Cl)c(Cl)c2)CC1 | 25 µM (inactive) | 3.21 µM (inactive) | 22.6 µM (inactive) |  | 18 µM (inactive) | 21.8 µM (inactive) | 22.3 µM (inactive) | 33.7 µM (inactive) | 33 µM (inactive) | 16.9 µM (inactive) | 30.4 µM (inactive) | 15.7 µM (inactive) | 21.9 µM (inactive) |  | 7.55 µM (inactive) | 30.2 µM (inactive) | 36.9 µM (inactive) | 12.3 µM (inactive) | 19.6 µM (inactive) | 
10 | [N-]=[N+]=Nc1ncnc2c1sc(=S)n2-c1ccccc1 |  | > 100 µM (inactive) | > 100 µM (inactive) | > 100 µM (inactive) | > 100 µM (inactive) |  | > 100 µM (inactive) | > 100 µM (inactive) | > 100 µM (inactive) | > 100 µM (inactive) | > 100 µM (inactive) | > 100 µM (inactive) | 21.6 µM (inactive) |  | > 100 µM (inactive) | > 100 µM (inactive) |  | > 100 µM (inactive) | > 100 µM (inactive) | 
11 | CN(C)CC/C(=N\Nc1ccc(Cl)cc1Cl)c1ccccc1 |  | 3.94 µM (inactive) | 14.3 µM (inactive) | 16.1 µM (inactive) | 15.1 µM (inactive) |  | 5.73 µM (inactive) | 17.7 µM (inactive) | 15.9 µM (inactive) | 15 µM (inactive) | 20.6 µM (inactive) | > 10 µM (inactive) | 13.9 µM (inactive) |  | 13.8 µM (inactive) | 15 µM (inactive) |  | 12 µM (inactive) | 14.6 µM (inactive) | 
12 | COC(CC1(OC)OC(=O)C=C1N)OC (stereo unspecified) |  | > 100 µM (inactive) | > 100 µM (inactive) | > 100 µM (inactive) | > 100 µM (inactive) |  | > 100 µM (inactive) | > 100 µM (inactive) | > 100 µM (inactive) | > 100 µM (inactive) | > 100 µM (inactive) | > 100 µM (inactive) | > 100 µM (inactive) |  | > 100 µM (inactive) | > 100 µM (inactive) |  | > 100 µM (inactive) | > 100 µM (inactive) | 
13 | CCCCCCC(O)C/C=C/CCCCCC/C(C(=O)OC)=C(/O)C(=O)OCC (stereo unspecified) |  | > 100 µM (inactive) | 97.7 µM (inactive) | > 100 µM (inactive) | > 100 µM (inactive) |  | 72.8 µM (inactive) | > 100 µM (inactive) | > 100 µM (inactive) | > 100 µM (inactive) | > 100 µM (inactive) | > 100 µM (inactive) | > 100 µM (inactive) |  | > 100 µM (inactive) | > 100 µM (inactive) |  | 7.93 µM (inactive) | > 100 µM (inactive) | 
14 | CNc1ncccc1Nc1cc(=O)n2c3cccnc3n(C)c2c1 | 13.7 µM (inactive) | > 100 µM (inactive) | > 100 µM (inactive) | 40.9 µM (inactive) | 53.2 µM (inactive) | > 100 µM (inactive) | > 100 µM (inactive) | > 100 µM (inactive) | > 100 µM (inactive) | > 100 µM (inactive) | > 100 µM (inactive) | 38.9 µM (inactive) | 36.8 µM (inactive) |  | > 100 µM (inactive) | > 100 µM (inactive) | > 100 µM (inactive) | > 100 µM (inactive) | > 100 µM (inactive) | > 100 µM (inactive)
15 | COc1cc(S(=O)(=O)Nc2ccc(-c3csc(N4C(=O)C(C)SC4c4ccccc4)n3)cc2)ccc1Cl (stereo unspecified) |  | 38.4 µM (inactive) | 30.6 µM (inactive) | 35.7 µM (inactive) |  | 24.6 µM (inactive) | 33 µM (inactive) | > 100 µM (inactive) | 37.4 µM (inactive) | > 100 µM (inactive) | 7.52 µM (inactive) | 39.6 µM (inactive) |  | 0.794 µM (active) | 34.8 µM (inactive) | > 100 µM (inactive) | > 100 µM (inactive) | 25 µM (inactive) | 21.4 µM (inactive) | 19.5 µM (inactive)
16 | Nc1ccccc1OCc1cc(=O)c(OCc2ccccc2)co1 | 19.9 µM (inactive) | 15 µM (inactive) | 2.75 µM (inactive) | > 100 µM (inactive) | 18.8 µM (inactive) | 15.8 µM (inactive) | > 100 µM (inactive) | > 100 µM (inactive) | 14.3 µM (inactive) | 8.99 µM (inactive) | 24.1 µM (inactive) | 62.1 µM (inactive) | 33 µM (inactive) |  | 64.7 µM (inactive) | 71.1 µM (inactive) | 10.2 µM (inactive) | > 100 µM (inactive) | 0.469 µM (active) | 19.1 µM (inactive)
